Tests used:
C57B6/J mice = experiment: LPS-induced sepsis survival; type: in vivo, mouse; conditions: LPS 20 mg/kg i.p.; for survival of septic mice: compound 20 mg/kg i.p.
Protocol: UAS03 (Ether) attenuates septic mortality. C57B6/J mice were injected with lipopolysaccharide intra-peritoneally at a septic dose of 20 mg/kg. The treated animals received either Urolithin-A or UAS03 (Ether) at 20 mg/kg intraperitoneal injection.
Preventive and therapeutic effect of UAS03 (Ether) in septic animals. Animals were injected with LPS intraperitoneally at 20 mg/kg dose to induce sepsis. For Ether+LPS group animals were given UAS03 (20 mg/kg; intraperitoneal) 1 hour prior LPS injection. LPS+Ether group received UAS03 1 hour post LPS injection.

Caco-2 monolayer cells = experiment: Caco2 monolayer TEER and FITC-dextran permeability (EtOH, LPS, HMGB1); type: cell-based, human; conditions: for TEER / Ocln expression: EtOH 350 mM (2%); for TEER: 10, 25, 50 μM pre-treatment 24 h; for Ocln expression: 10, 25, 50 μM, 24 h
Protocol: FIG. 13: Caco2 cells were grown as monolayer on transwell membrane filters. (A) Cells were treated with 40 mM EtOH and FITC-dextran permeability was performed in time dependent manner. (B-F) Cells were treated with respective Urolithins (50 μM) and Ellagic acid (50 μM) or different doses of UroA (B) for 24 hrs. After treatments, cells were treated with ethanol (40 mM) (B, D) or 400 mM (E, F), LPS (100 ng/mL), HMGB1 (500 ng/mL) for 2 hrs and washed with PBS. FITC-Dex (1 mg/mL) solution was added (100 μl) on apical side. Permeability of FITC-Dex across the monolayer as well as TEER values were measured after 2 hr. […] Confocal images of TJ proteins staining. Statistics performed using unpaired t-test. *p<0.05, **p<0.01, *** p<0.001, Error bars, ±SEM.
Caco2 cells on transwell membrane were pre-treated with vehicle or UroA or UAS03 (10, 25, 50 μM) for 24 h followed by addition of alcohol (2%) for 24 h. TEER values (A) and the FITC-dextran permeability assay (B) was performed as described in FIG. 2. Statistics performed using unpaired t-test using Graphpad Prism software. Error bars, ±SEM; ***p<0.001; **p<0.01. (C) Caco2 cells were treated with alcohol (EtOH) (350 mM or 2%) in the presence or with UroA or UAS03 (10, 25, 50 μM) for 24 h and determined expression of Ocln by Western blots. Representative of 3 independent blots was shown.
UroA upregulate TJ proteins and protect against EtOH induced damage. […] For this purpose, we utilized Caco-2 monolayer cells on transwell membranes and performed transepithelial electrical resistance (TEER) and FITC-dextran permeability assays. […] Gut barrier dysfunction leads to elevated intestinal permeability thus increasing circulating levels of endotoxins. Endotoxins such as LPS (representative for PAMP) and HMGB1 (representative for DAMP) induce several inflammatory cytokines, chemokines and ROS leading to further enhancement of systemic inflammation to promote pathogenesis of ALD.
We tested whether UAS03 could protect against higher dose of EtOH (350 mM) induced barrier dysfunction in Caco2 monolayer cells.

Compound	survival, pretreated (1 hour prior LPS) (C57B6/J mice; 20 mg/kg i.p.) [%]	survival, therapeutic group (1 hour post LPS) (C57B6/J mice; 20 mg/kg i.p.) [%]	survival of septic mice (C57B6/J mice) [%]	TEER (Caco-2 monolayer cells)	Ocln expression (Caco-2 monolayer cells)	TEER values (Caco-2 monolayer cells; EtOH 400 mM)	EtOH induced damage of tight junction proteins (ZO-1, Ocln) (Caco-2 monolayer cells; Western blots, confocal images)
Oc1ccc2c(c1)COc1cc(O)ccc1-2 [UAS03, 6H-benzo[c]chromene-3,8-diol]	70	100	90	increased TEER	increased TJ protein	–	–
O=c1oc2cc(O)ccc2c2ccc(O)cc12 [UroA, 3,8-dihydroxy-6H-dibenzo[b,d]pyran-6-one]	–	–	20	increased TEER	increased TJ protein	enhanced TEER values	protects against EtOH induced damage of tight junction proteins
